Measured values taken from ChEMBL document CHEMBL3351954, “Enhanced water-soluble derivative of PC407 as a novel potential COX-2 inhibitor injectable formulation” (Bioorg Med Chem Lett, 2014).
Values after ≈ are worked out from the molar mass of the structure shown. Active and inactive are the calls of the source. The calls are words filed in the database; no cut-off is given here.

How the values were obtained:
[1] = molecular target: T1, Prostaglandin G/H synthase 2 (Homo sapiens) (UniProt P35354); experiment: Inhibition of recombinant COX-2 (unknown origin) at 0.1 uM
T1 sequence (whole entry): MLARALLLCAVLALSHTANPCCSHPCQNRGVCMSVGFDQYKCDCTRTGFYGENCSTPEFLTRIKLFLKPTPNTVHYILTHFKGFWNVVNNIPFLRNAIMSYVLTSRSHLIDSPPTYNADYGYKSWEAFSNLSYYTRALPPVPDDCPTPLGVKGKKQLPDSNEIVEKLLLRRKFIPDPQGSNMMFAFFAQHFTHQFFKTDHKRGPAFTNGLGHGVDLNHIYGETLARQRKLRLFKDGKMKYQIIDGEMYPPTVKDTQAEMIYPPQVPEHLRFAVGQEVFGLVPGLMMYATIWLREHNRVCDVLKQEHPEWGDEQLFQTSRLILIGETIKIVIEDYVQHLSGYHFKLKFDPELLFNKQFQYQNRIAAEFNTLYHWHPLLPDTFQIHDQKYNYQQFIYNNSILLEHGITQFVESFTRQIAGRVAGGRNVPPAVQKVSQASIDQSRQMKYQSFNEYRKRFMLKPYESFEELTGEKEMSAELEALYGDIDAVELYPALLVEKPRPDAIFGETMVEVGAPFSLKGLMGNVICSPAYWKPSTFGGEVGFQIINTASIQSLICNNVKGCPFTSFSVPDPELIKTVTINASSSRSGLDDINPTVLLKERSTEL

[2] = tested on: Plasma; experiment: Drug level in Sprague-Dawley rat plasma treated with 5 mg/kg, iv after 10 mins to 4 hrs; format: ADME, organism-based; design: dose 5 mg/kg, route intravenous; details: in vivo
[3] = molecular target: Prostaglandin G/H synthase 1 (Homo sapiens) (UniProt P23219); experiment: Inhibition of recombinant COX-1 (unknown origin) at 0.1 uM
Sequence of Prostaglandin G/H synthase 1 (Homo sapiens) (P23219 whole entry): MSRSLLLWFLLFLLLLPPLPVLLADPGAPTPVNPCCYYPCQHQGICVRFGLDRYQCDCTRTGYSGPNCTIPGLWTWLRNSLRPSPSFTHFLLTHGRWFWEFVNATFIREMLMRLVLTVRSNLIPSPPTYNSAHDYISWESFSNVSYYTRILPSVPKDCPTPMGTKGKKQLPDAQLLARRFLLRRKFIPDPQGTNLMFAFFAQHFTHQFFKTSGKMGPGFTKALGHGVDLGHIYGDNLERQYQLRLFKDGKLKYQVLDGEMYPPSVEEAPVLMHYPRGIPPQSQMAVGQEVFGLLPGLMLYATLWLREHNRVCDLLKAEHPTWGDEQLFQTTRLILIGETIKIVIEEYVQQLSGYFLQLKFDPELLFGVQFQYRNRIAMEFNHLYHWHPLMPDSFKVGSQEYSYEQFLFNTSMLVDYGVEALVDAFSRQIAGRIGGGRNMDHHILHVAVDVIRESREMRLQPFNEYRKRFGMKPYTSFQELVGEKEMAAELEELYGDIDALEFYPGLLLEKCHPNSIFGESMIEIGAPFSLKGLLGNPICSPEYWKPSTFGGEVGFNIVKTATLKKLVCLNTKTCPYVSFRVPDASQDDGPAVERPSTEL

[4] = tested on: Mus musculus; experiment: Analgesic activity in Kun Ming mouse model assessed as inhibition of acetic acid-induced visceral pain at 0.1 mmol/kg, iv administered 5 mins prior to acetic acid challenge measured after 30 mins by writhing assay relative to control; format: functional; design: scale not given: the % may be the effect or the level left
[5] = Solubility of the compound in water at 25 degC by HPLC analysis; format: physicochemical
[6] = tested on: Mus musculus; experiment: Analgesic activity in Kun Ming mouse model assessed as inhibition of acetic acid-induced visceral pain at 0.1 mmol/kg, iv administered 5 mins prior to acetic acid challenge measured after 15 mins by writhing assay relative to control; format: functional; design: scale not given: the % may be the effect or the level left
[7] = molecular target: Prostaglandin G/H synthase 1 (Homo sapiens) (UniProt P23219); experiment: Inhibition of recombinant COX-1 (unknown origin) at 10 uM
[8] = tested on: Plasma; experiment: Prodrug conversion in Sprague-Dawley rat plasma assessed as PC407 formation at 5 mg/kg, iv after 1.5 hrs; format: ADME, organism-based; design: dose 5 mg/kg, route intravenous; details: in vivo
[9] = molecular target: T1, Prostaglandin G/H synthase 2 (Homo sapiens); experiment: Inhibition of recombinant COX-2 (unknown origin) at 10 uM
[10] = Toxicity in iv dosed Kun Ming mouse; format: organism-based; details: in vivo

Compound	inhibition [1] [%]	Drug uptake [2]	inhibition [3]	Activity [4] [%]	solubility [5] [mg/mL]	Activity [6] [%]	inhibition [7]	Drug metabolism [8]	inhibition [9]	MTD [10] [mg/kg]
NS(=O)(=O)c1ccc(-n2nc(C(F)(F)F)cc2-c2ccc3ccccc3c2)cc1	100	Active	inactive	81	0.0016 (≈ 3.83 µM)	83	–	–	–	–
O=C([O-])CCC(=O)[N-]S(=O)(=O)c1ccc(-n2nc(C(F)(F)F)cc2-c2ccc3ccccc3c2)cc1.[Na+].[Na+]	–	–	–	83	20.3	77	inactive	metabolite_detected	inactive	> 1500
